Data reported in patent US9089850B2, “Method and apparatus for separation of pharmaceutical materials on the basis of their density” (Syracuse University, priority 2009, dated 2015).
Read-outs that look alike come from different tables or passages of the source.

What was measured:
[1] = Seeding experiment in n-propanol with flotation density test; type: physicochemical; conditions: crystals slowly grown in n-propanol at ambient temperature, seeded with material of form III density
From the text: Parmar, 2007 states that crystallization from n-propanol yields form I and that that form is stable in this solvent. In a seeding experiment we harvested material that was the right density for form III and used this to seed crystallization in n-propanol. The resulting crystals, slowly grown at ambient temperature, are not consistent with form I or form III, but are consistent with form II. The density by a flotation density test indicates this material to be form II. The observation that form II is obtained in this case is quite probably due to the presence of a small amount of form II in the predominantly form III sample. […] That is not the case with our seed crystals.

[2] = Density gradient analysis of fresh, quickly crystallized sulfathiazole samples; type: physicochemical; conditions: relative amount of form in density gradient; benzene/chloroform to tetrachloroethylene gradient
From the text: Our density gradient methodology is a refinement and extension to the pharmaceutical industry of existing well-established methodologies in other fields. [Bomstein & Steberl, 1959; Kind & Summerscales, 1966; US 2004/6,709,871 B2; Richards, 1999; ASTM D 1505-98; ISO 1183-2:2004; Yanagi, 2010; Doom, 2010; Chernov, 2009a.b; Moshammer, 2009; Fleurier, 2009; Kato, 2009; Deng, 2008, 2009; Park, 2008; Lu, 2006; Hersam, 2006]. A density gradient is made with a “gradient maker” consisting of two chambers connected through a stopcock and with a second stopcock on one of the containers to an outflow tube. A mixer is used in the outflow chamber.
We have developed this technique to optimize reliability and visibility of the resulting separated materials. In particular, we have created a device that permits the formation of identical gradients in one overall unobstructed container (see FIG. 3 and FIG. 4). These columns are at the outer wall of the overall cylindrical container. A central black column permits viewing of the materials in each column individually. The tubes that will contain the samples of crystalline material are open at the bottom; the gradient maker fills all columns simultaneously forming identical gradients.
A density gradient was prepared in the device described above using a mixture of benzene and chloroform (ρ=1.32 g/cm^3) as one liquid and tetrachloroethylene (ρ=1.62 g/cm^3) as the other.
Fresh crystalline samples of solid sulfathiazole were prepared by crystallizing about 50 mg of sulfathiazole (Sigma-Aldrich lot 028K1522) from water, methanol, ethanol, isopropanol and n-butanol by dissolving them at about 55° C. and then cooling to ambient temperature to form crystals at which point material was harvested. All materials were made at the same time, isolated within an hour of each other and dried with a stream of argon gas.
Based on the density gradient analysis, this rapid crystallization gives from water a mixture of forms III and IV in about equal amount, from both methanol and ethanol form II and III, from isopropanol a mixture of forms I, II and III and from n-butanol form I. The bands for this last material are distinctly more compact than those of the other forms.
One of the major benefits of the gradient method is that it provides an immediate visual report of the number of materials in an API preparation. A qualitative interpretation of the relative amounts of components in the gradient is easily made. A more quantitative estimate could be obtained by a simple light scattering analysis with simple added apparatus that performs either transmission or 90 degree scattering measurements. Calibration of the light scattering signal as a function of the amount of API could be performed using a sample in a very steep gradient (and thus not separated). This would make this a semi-quantitative method.

[3] = polymorphic form expected for the crystallization solvent, previous work [Parmar, 2007]; cited from earlier work
[4] = cited from earlier work

| Structure (SMILES) | Form II [2] | Form III [2] | Form IV [2] | Expected [23] [3] | also measured |
| --- | --- | --- | --- | --- | --- |
| Nc1ccc(S(=O)(=O)Nc2nccs2)cc1 [sulfathiazole] |  |  |  |  | polymorphic form by flotation density test [1]: form II |
| Nc1ccc(S(=O)(=O)Nc2nccs2)cc1 [Tube E, sulfathiazole] |  |  |  | Form I | Form I [2]: major |
| Nc1ccc(S(=O)(=O)Nc2nccs2)cc1 [form IV, sulfathiazole] |  |  |  |  | density ([4]; single crystal x-ray results [Blagden, 1998], listed as IV): 1.595 |
| Nc1ccc(S(=O)(=O)Nc2nccs2)cc1 [form II, sulfathiazole] |  |  |  |  | density ([4]; single crystal x-ray results [Blagden, 1998], listed as II): 1.551 |
| Nc1ccc(S(=O)(=O)Nc2nccs2)cc1 [form I, sulfathiazole] |  |  |  |  | density ([4]; single crystal x-ray results [Blagden, 1998], listed as I): 1.500 |
| Nc1ccc(S(=O)(=O)Nc2nccs2)cc1 [form V, sulfathiazole] |  |  |  |  | density ([4]; synchrotron x-ray powder diffraction study [Chan, 1999]): 1.484 |
| Nc1ccc(S(=O)(=O)Nc2nccs2)cc1 [form III, sulfathiazole] |  |  |  |  | density ([4]; single crystal x-ray results [Blagden, 1998], listed as III): 1.569 |

Now from value to compound, other results behind:

| Form II [2] | Form III [2] | Form IV [2] | Structure (SMILES) | Expected [23] [3] | also measured |
| --- | --- | --- | --- | --- | --- |
| major | major | minor | Nc1ccc(S(=O)(=O)Nc2nccs2)cc1 [Tube C, sulfathiazole] | Form IV |  |
| major | minor | very | Nc1ccc(S(=O)(=O)Nc2nccs2)cc1 [Tube D, sulfathiazole] | Form III | Form I [2]: very |
| major | major | minor | Nc1ccc(S(=O)(=O)Nc2nccs2)cc1 [Tube B, sulfathiazole] | Form II |  |
| minor | major | major | Nc1ccc(S(=O)(=O)Nc2nccs2)cc1 [Tube A, sulfathiazole] | Form IV |  |
